The values that follow are results of earlier work, collected in patent publication US20260102372A1, “NEW FORMULATIONS FOR MENTAL DISORDERS OR MENTAL ENHANCEMENT” (TACTOGEN INC, priority 2023, published 2026).

The structures appear in SMILES notation.

Series [1] has as its system PTSD. The note with it: MDMA arm.
For series [2] the following is noted: pooled Phase 2 trials.
Assay in series [3]: not given
This is another data set of the same source.

The target in series [4] is cytochrome p450 isozyme 2D6 (CYP2D6) (Homo sapiens, UniProt P10635).
The conditions of series [5]: nonhuman animals.

Sequence of cytochrome p450 isozyme 2D6 (CYP2D6) (P10635 whole entry): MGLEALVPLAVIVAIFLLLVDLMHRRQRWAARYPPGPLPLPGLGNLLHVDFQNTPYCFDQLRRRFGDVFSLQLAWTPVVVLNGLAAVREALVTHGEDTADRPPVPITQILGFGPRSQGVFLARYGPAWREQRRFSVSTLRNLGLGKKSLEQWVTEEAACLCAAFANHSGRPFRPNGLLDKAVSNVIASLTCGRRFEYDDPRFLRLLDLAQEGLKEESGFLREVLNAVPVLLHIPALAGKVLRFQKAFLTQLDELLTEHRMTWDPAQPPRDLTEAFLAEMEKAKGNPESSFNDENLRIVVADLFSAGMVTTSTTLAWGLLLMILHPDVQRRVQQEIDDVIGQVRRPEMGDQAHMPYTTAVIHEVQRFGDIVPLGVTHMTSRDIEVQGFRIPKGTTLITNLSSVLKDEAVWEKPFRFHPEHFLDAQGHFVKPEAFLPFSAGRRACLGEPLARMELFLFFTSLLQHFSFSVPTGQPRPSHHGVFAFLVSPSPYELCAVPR

As to `CNC(C)Cc1ccc2c(c1)OCO2` (stereo not shown) [MDMA, [1-(2H-1,3-benzodioxol-5-yl)propan-2-yl](methyl)amine], in series [1] (first of two Phase 3 trials (Mitchell et al. 2021)), the “participants with sufficient improvement that they were no longer diagnosable with PTSD” value is reported as “one-third”. Also, in series [1] (first of two Phase 3 trials, MDMA-assisted therapy for PTSD (Mitchell et al. 2021)), the participants improved is 88%. Moreover, under “after 75 or 125 mg MDMA, standard deviation 1.3 hours (Vizeli & Liechti 2017)”, the “duration of acute psychological and emotional effects (average)” value is on record as 4.2 hours. Where the note is “after administration of MDMA”, the “time by which acute emotional effects have largely resolved” value was no more than 8 h. Also, in series [2] (29 of 72 participants (Mithoefer et al. 2019)), the “nausea occurred in participants” value is recorded as 40.3%. Further, the “anxiety occurred in participants” value in series [2] (52 of 72 participants (Mithoefer et al. 2019)) is 72.2%. Besides, the half-life in plasma result in series [3] was “seven to nine”. Also, in series [4], the CYP2D6 interaction result was “both a substrate and inhibitor”. For the same compound, in series [5], the “markers of serotonergic functioning (brain serotonin, tryptophan hydroxylase, serotonin transporter density)” value is recorded as “decreases” and the “measures of oxidative stress” value is “increases”.
